Test results reported in patent publication US20130252950A1, “TARGETING MTOR SUBSTRATES IN TREATING PROLIFERATIVE DISEASES” (President and Fellows of Harvard College, priority 2010, published 2013).

Legend:
[1] = test system: Grb10 mRNA in TSC2−/− cells; experiment: Quantitative RT-PCR of Grb10 mRNA; assay type: cell-based, mouse; conditions: three biological replicates
Text: FIG. 3. mTOR-mediated Grb10 phosphorylation is important for Grb10 stability. (A) Grb10 interacts with raptor, but not rictor. HA-tagged Grb10 was co-transfected with Myc-raptor or Myc-rictor in HEK293T cells. Cells were lysed in lysis buffer A, and the lysates were subjected to immunoprecipitation using anti-HA antibody conjugated beads. Raptor and rictor were probed with an antibody against the Myc-tag. (B) Grb10 is phosphorylated by mTOR in vitro. […] Phosphorylation of Grb10 at S501/S503 was detected by using the phospho-specific antibody against these two sites. (C) Long-term rapamycin treatment leads to Grb10 degradation in TSC2−/− cells. […] Grb10 is highly overexpressed in TSC2−/− cells. mRNA level was determined using quantitative RT-PCR based on three biological replicate experiments. […] Endogenous Grb10 was detected using an antibody that preferentially recognizes mouse Grb10 whereas the Grb10 DD mutant (of human origin) was detected using an anti-HA antibody. […]
Total cellular RNA was purified from cultured cells using the RNeasy mini kit (Qiagen) following the manufacturer's protocol. For quantitative real-time PCR (qRT-PCR), RNA was reverse-transcribed using the High-Capacity cDNA Reverse Transcription Kit (Applied Biosystems) according to the manufacturer's instructions. The resulting cDNA was analyzed by qRT-PCR using the QuantiTect SYBR Green qPCR System (Qiagen). […]

[2] = test system: Grb10 protein in TSC2−/− cells; experiment: Immunoblot of Grb10 protein level after long-term treatment; assay type: cell-based, mouse; conditions: TSC2−/− MEFs stably expressing HA-tagged Grb10-DD, long-term 20 nM rapamycin
Text: FIG. 3. mTOR-mediated Grb10 phosphorylation is important for Grb10 stability. (A) Grb10 interacts with raptor, but not rictor. HA-tagged Grb10 was co-transfected with Myc-raptor or Myc-rictor in HEK293T cells. Cells were lysed in lysis buffer A, and the lysates were subjected to immunoprecipitation using anti-HA antibody conjugated beads. Raptor and rictor were probed with an antibody against the Myc-tag. (B) Grb10 is phosphorylated by mTOR in vitro. […] Phosphorylation of Grb10 at S501/S503 was detected by using the phospho-specific antibody against these two sites. (C) Long-term rapamycin treatment leads to Grb10 degradation in TSC2−/− cells. Note that Grb10 protein expression levels inversely correlated with Akt activity. Grb10 is highly overexpressed in TSC2−/− cells. mRNA level was determined using quantitative RT-PCR based on three biological replicate experiments. (D) Knockdown of raptor in TSC2−/− cells decreased Grb10 protein level. Cells were starved overnight and the lysates were probed with the antibodies indicated. (E) Grb10 is highly overexpressed in TSC2−/− cells. (F) S501A/S503A mutant is unstable compared with the wild-type or the S501D/S503D mutant. The same amount of DNA was transfected into HEK293T cells. […] Endogenous Grb10 was detected using an antibody that preferentially recognizes mouse Grb10 whereas the Grb10 DD mutant (of human origin) was detected using an anti-HA antibody.
FIG. 9. Phosphorylation of Grb10 at S501/S503 regulates its stability. […] Preincubation of the antibody with the […] completely eliminated the immunoreactivity. (B) Further validation of the phospho-specific antibody raised against the Grb10 S501/S503 sites. Grb10 WT, S501A/S503A (AA) and S501D/S503D (DD) were transfected into HEK239T cells and were probed with the antibody. Note that this antibody detected wild type (WT) Grb10, but neither of the mutant proteins. (C) Treatment of TSC2−/− cells with various mTOR kinase inhibitors led to Grb10 degradation. […] (E) Grb10 is highly overexpressed in TSC1−/− cells compared with their wild-type counterparts. (F) rapamycin treatment of TSC2−/− cells stably expressing wild type (WT) Grb10 led to lower levels of both endogenous and exogenous Grb10.
In addition, long-term treatment with mTOR kinase inhibitors, including LY-294002, NVP-BEZ235, torin and pp 242 all led to reduced Grb10 protein expression (FIG. 9C). Similar results were obtained in TSC1−/− MEFs (FIG. 9D). In contrast, we found Grb10 was highly overexpressed in TSC2−/− and TSC1−/− MEFs compared with their wild-type counterparts (FIGS. 3E and 9E), correlating with elevated mTORC1 activity in these cells. […]

CO[C@H]1C[C@@H]2CC[C@@H](C)[C@@](O)(O2)C(=O)C(=O)N2CCCC[C@H]2C(=O)O[C@H]([C@H](C)C[C@@H]2CC[C@@H](O)[C@H](OC)C2)CC(=O)[C@H](C)/C=C(\C)[C@@H](O)[C@@H](OC)C(=O)[C@H](C)C[C@H](C)/C=C/C=C/C=C/1C [rapamycin]
decrease in Grb10 mRNA levels after long-term rapamycin [1]: approximately 2 fold
Grb10 S501D/S503D (DD) mutant protein levels [2]: no effect
